In publication PMC10663540, “Structure-based discovery of dual pathway inhibitors for SARS-CoV-2 entry” (Nature Communications, 2023):
Where “and” joins values, the source holds several entries; their conditions need not be identical. Identical values can stand only once. Like-named read-outs stand apart in the source and are kept apart here.

Columns and labels:
[1] = biological target: T1, TMPRSS2 (Homo sapiens, UniProt O15393)
Target sequence in this assay (O15393 with tags, fused parts or gaps): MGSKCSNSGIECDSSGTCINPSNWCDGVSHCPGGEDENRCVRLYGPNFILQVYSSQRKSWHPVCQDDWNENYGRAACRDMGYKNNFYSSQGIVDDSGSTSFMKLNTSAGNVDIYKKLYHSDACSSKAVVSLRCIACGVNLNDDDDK
Target sequence in this assay (O15393 256-492): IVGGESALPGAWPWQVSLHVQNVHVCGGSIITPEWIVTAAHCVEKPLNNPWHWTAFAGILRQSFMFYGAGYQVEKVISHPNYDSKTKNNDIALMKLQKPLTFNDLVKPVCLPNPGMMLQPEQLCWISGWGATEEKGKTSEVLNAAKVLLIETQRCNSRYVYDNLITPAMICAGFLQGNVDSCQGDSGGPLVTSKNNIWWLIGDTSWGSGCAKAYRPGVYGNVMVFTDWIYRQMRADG

[2] = test system: Calu-3 cells; conditions: rep1-rep3
[3] = test system: SARS-CoV-2; type: cell-based; conditions: UK-371804 1.1 μM; Supplementary Fig. 7c
[4] = biological target: T1, TMPRSS2; test: biochemical; type: biochemical
Target sequence in this assay (O15393 256-492): as above
Target sequence in this assay (O15393 other isoform, or with tags, fused parts or gaps): as the sequence (O15393 with tags, fused parts or gaps) above

[5] = in vitro; conditions: human

Which “Tm of TMPRSS2” value [1] does the source give for `O=C(O)CN(CCN(CC(=O)O)CC(=O)O)CC(=O)O` [EDTA] here?
Its value is 51.7 °C and 51.6 °C.

Which Cytotoxicity ([2]; 0.0128 μM) does the source give for `CC(C)(NS(=O)(=O)c1ccc2c(Cl)cnc(N=C(N)N)c2c1)C(=O)O` [UK-371804] here?
The Cytotoxicity was 4.90% and 4.97% and 4.91%.

What about the Cytotoxicity ([2]; 0.064 μM) of the same molecule?
Its Cytotoxicity is 5.03% and 5.08% and 5.05%.

And the Cytotoxicity ([2]; 8 μM)?
The Cytotoxicity was 8.30% and 8.32% and 8.28%.

And the Cytotoxicity ([2]; 40 μM)?
The Cytotoxicity was 11.32% and 11.36% and 11.39%.

And the Cytotoxicity ([2]; 200 μM)?
The Cytotoxicity was 60.70% and 60.73% and 60.71%.

What about the Cytotoxicity ([2]; 1000 μM) of the same molecule?
The Cytotoxicity was 98.32% and 98.37% and 98.33%.

What about the Virus titer [3] of the same molecule?
The Virus titer was 31700 TCID50/ml and 20000 TCID50/ml.

What about the “Inhibition: TMPRSS2” value ([4]; 0.038147 nM, rep1-rep4, 3.8147e-05 µM) of the same molecule?
The value was 0.08% and 2.54% and 1.84% and 2.81%.

What about the “Inhibition: TMPRSS2” value ([4]; 0.076294 nM, rep1-rep4, 7.6294e-05 µM) of the same molecule?
The value was 0.83% and 3.15% and 2.99% and 4.15%.

What about the “Inhibition: TMPRSS2” value ([4]; 0.152588 nM, rep1-rep4, 0.000152588 µM) of the same molecule?
The value was 1.86% and 5.33% and 3.17% and 6.82%.

And the inhibition at 0.000305176 µM ([4]; 0.305176 nM, rep1-rep4)?
Its inhibition at 0.000305176 µM is 5.7%.

And the “Inhibition: TMPRSS2” value ([4]; 0.305176 nM, rep1-rep4, 0.000305176 µM)?
Its value is 8.86% and 5.77% and 9.17%.

And the IC50 ([4]; 0.5 nM TMPRSS2, 10 μM substrate, mean ± SD, four replicates)?
Its IC50 is 0.00459 µM.

And the “Inhibition: TMPRSS2” value ([4]; 0.610352 nM, rep1-rep4, 0.000610352 µM)?
The value was 13.28% and 12.75% and 14.23%.

What about the inhibition at 0.000610352 µM ([4]; 0.610352 nM, rep1-rep4, read-out: Inhibition: TMPRSS2) of the same molecule?
The inhibition at 0.000610352 µM was 10.6%.

And the “Inhibition: TMPRSS2” value ([4]; 1.2207 nM, rep1-rep4, 0.0012207 µM)?
The value was 21.81% and 21.57% and 22.98%.

And the inhibition at 0.0012207 µM ([4]; 1.2207 nM, rep1-rep4, read-out: Inhibition: TMPRSS2)?
The inhibition at 0.0012207 µM was 19.4%.

What about the “Inhibition: TMPRSS2” value ([4]; 2.44141 nM, rep1-rep4, 0.00244141 µM) of the same molecule?
Its value is 37.42% and 35.32% and 36.99%.

And the inhibition at 0.00244141 µM ([4]; 2.44141 nM, rep1-rep4, read-out: Inhibition: TMPRSS2)?
Its inhibition at 0.00244141 µM is 34.9%.

What about the “Inhibition: TMPRSS2” value ([4]; 4.88281 nM, rep1-rep4, 0.00488281 µM) of the same molecule?
Its value is 52.70% and 52.38% and 53.49%.

What about the inhibition at 0.00488281 µM ([4]; 4.88281 nM, rep1-rep4, read-out: Inhibition: TMPRSS2) of the same molecule?
Its inhibition at 0.00488281 µM is 50.8%.

What about the “Inhibition: TMPRSS2” value ([4]; 9.76562 nM, rep1-rep4, 0.00976562 µM) of the same molecule?
The value was 69.20% and 69.17%.

What about the inhibition at 0.00976562 µM ([4]; 9.76562 nM, rep1-rep4, read-out: Inhibition: TMPRSS2) of the same molecule?
The inhibition at 0.00976562 µM was 68.8%.

What about the “Inhibition: TMPRSS2” value ([4]; 19.5312 nM, rep1-rep4, 0.0195312 µM) of the same molecule?
The value was 82.58% and 82.53% and 82.55%.

And the inhibition at 0.0195312 µM ([4]; 19.5312 nM, rep1-rep4, read-out: Inhibition: TMPRSS2)?
Its inhibition at 0.0195312 µM is 82.4%.

What about the “Inhibition: TMPRSS2” value ([4]; 39.0625 nM, rep1-rep4, 0.0390625 µM) of the same molecule?
Its value is 90.09% and 90.26% and 90.84%.

What about the inhibition at 0.0390625 µM ([4]; 39.0625 nM, rep1-rep4, read-out: Inhibition: TMPRSS2) of the same molecule?
The inhibition at 0.0390625 µM was 90.6%.

What about the “Inhibition: TMPRSS2” value ([4]; 78.125 nM, rep1-rep4, 0.078125 µM) of the same molecule?
The value was 94.96% and 95.13% and 95.23%.

What about the inhibition at 0.078125 µM ([4]; 78.125 nM, rep1-rep4, read-out: Inhibition: TMPRSS2) of the same molecule?
The inhibition at 0.078125 µM was 95.3%.

And the “Inhibition: TMPRSS2” value ([4]; 156.25 nM, rep1-rep4, 0.15625 µM)?
The value was 97.46% and 97.80% and 98.15%.

What about the inhibition at 0.15625 µM ([4]; 156.25 nM, rep1-rep4, read-out: Inhibition: TMPRSS2) of the same molecule?
The inhibition at 0.15625 µM was 97.9%.

What about the “Inhibition: TMPRSS2” value ([4]; 312.5 nM, rep1-rep4, 0.3125 µM) of the same molecule?
The value was 98.77% and 99.07% and 99.48%.

What about the inhibition at 0.3125 µM ([4]; 312.5 nM, rep1-rep4, read-out: Inhibition: TMPRSS2) of the same molecule?
The inhibition at 0.3125 µM was 99.1%.

And the “Inhibition: TMPRSS2” value ([4]; 625 nM, rep1-rep4, 0.625 µM)?
Its value is 100.11% and 99.99% and 100.09%.

What about the inhibition at 0.625 µM ([4]; 625 nM, rep1-rep4, read-out: Inhibition: TMPRSS2) of the same molecule?
The inhibition at 0.625 µM was 100%.

And the “Inhibition: TMPRSS2” value ([4]; 1250 nM, rep1-rep4, 1.25 µM)?
Its value is 100.27% and 100.14% and 100.40%.

And the inhibition at 1.25 µM ([4]; 1250 nM, rep1-rep4, read-out: Inhibition: TMPRSS2)?
The inhibition at 1.25 µM was 101%.

And the “Inhibition: TMPRSS2” value ([4]; 2500 nM, rep1-rep4, 2.5 µM)?
The value was 100.86% and 100.80% and 100.93%.

What about the inhibition at 2.5 µM ([4]; 2500 nM, rep1-rep4, read-out: Inhibition: TMPRSS2) of the same molecule?
Its inhibition at 2.5 µM is 101%.

And the “Inhibition: TMPRSS2” value ([4]; 5000 nM, rep1-rep4, 5 µM)?
Its value is 102.04% and 102.07% and 102.13%.

And the inhibition at 5 µM ([4]; 5000 nM, rep1-rep4, read-out: Inhibition: TMPRSS2)?
The inhibition at 5 µM was 101%.

And the CC50 [5]?
The CC50 was 172 µM.
